Molecular target: T1, GPR43 (Homo sapiens, UniProt O15552)
T1 construct: expressed in transfected cells
T1 sequence (O15552 1-330): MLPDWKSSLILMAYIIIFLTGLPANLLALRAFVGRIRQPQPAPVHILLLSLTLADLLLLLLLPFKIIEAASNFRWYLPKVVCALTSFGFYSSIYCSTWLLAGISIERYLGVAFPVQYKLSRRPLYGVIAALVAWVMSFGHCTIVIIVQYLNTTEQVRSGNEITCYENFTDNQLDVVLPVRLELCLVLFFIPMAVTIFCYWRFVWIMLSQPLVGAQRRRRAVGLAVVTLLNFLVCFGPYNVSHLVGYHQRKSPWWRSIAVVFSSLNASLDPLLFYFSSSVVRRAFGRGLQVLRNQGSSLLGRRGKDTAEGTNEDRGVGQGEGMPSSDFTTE
Assay: Calcium mobilization assay with probenecid
Type: cell-based
Conditions: GPR43 stably expressing cells; triggered with sodium acetate at EC80; 2.5 mM probenecid; read-out: GPR43 assay with probenicid IC50
Method in brief: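 Cells stably expressing GPR43 plated overnight at 37 °C, then loaded 2 h with Calcium 4 dye plus 2.5 mM probenecid. […]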

Row | Compound | IC50
1 | COC(=O)CCN(Cc1cccc(Cl)c1)C(=O)C1(C)CCN1C(=O)c1csc2ccccc12 (stereo not shown) [Compound 172, 3-[[1-(Benzo[b]thiophene-3-carbonyl)-2-methyl-azetidine-2-carbonyl]-(3-chloro-benzyl)-amino]-propionic acid methyl ester] | 101 to 500 nM
2 | COC(=O)CCN(Cc1cccc(Cl)c1)C(=O)C1(C)CCN1C(=O)Cc1csc2ccccc12 (stereo not shown) [Compound 173, 3-[[1-(2-Benzo[b]thiophen-3-yl-acetyl)-2-methyl-azetidine-2-carbonyl]-(3-chloro-benzyl)-amino]-propionic acid methyl ester] | 101 to 500 nM
3 | CNS(=O)(=O)CCCN(Cc1ccc(Cl)cc1)C(=O)C1(C)CCN1C(=O)Cc1cc(C)cc(C)c1 (stereo not shown) [Compound 174, 1-[2-(3,5-Dimethyl-phenyl)-acetyl]-2-methyl-azetidine-2-carboxylic acid (4-chloro-benzyl)-(3-methylsulfamoyl-propyl)-amide] | 101 to 500 nM
4 | COC(=O)CCN(Cc1ccc2cn[nH]c2c1)C(=O)C1(C)CCN1C(=O)Cc1csc2ccccc12 (stereo not shown) [Compound 175, 3-[[1-(2-Benzo[b]thiophen-3-yl-acetyl)-2-methyl-azetidine-2-carbonyl]-(1H-indazol-6-ylmethyl)-amino]-propionic acid methyl ester] | 0.01 to 100 nM
5 | CC1(C(=O)N(CCC(=O)O)Cc2ccc3cn[nH]c3c2)CCN1C(=O)Cc1csc2ccccc12 (stereo not shown) [Compound 176, 3-[[1-(2-Benzo[b]thiophen-3-yl-acetyl)-2-methyl-azetidine-2-carbonyl]-(1H-indazol-6-ylmethyl)-amino]-propionic acid] | 101 to 500 nM
6 | CC1(C(=O)N(CCCC(=O)O)Cc2ccn3ccnc3c2)CCN1C(=O)Cc1csc2ccccc12 (stereo not shown) [Compound 177, 4-{[1-(2-Benzo[b]thiophen-3-yl-acetyl)-2-methyl-azetidine-2-carbonyl]-imidazo[1,2-a]pyridin-7-ylmethyl-amino}-butyric acid] | > 1000 nM
7 | COc1ccc(CNS(=O)(=O)CCCN(Cc2ccc(Cl)cc2)C(=O)C2(C)CCN2C(=O)Cc2csc3ccccc23)c(OC)c1 (stereo not shown) [Compound 178, 1-(2-Benzo[b]thiophen-3-yl-acetyl)-2-methyl-azetidine-2-carboxylic acid (4-chloro-benzyl)-[3-(2,4-dimethoxy-benzylsulfamoyl)-propyl]-amide] | > 1000 nM
8 | Cc1cc(C)cc(CC(=O)N2CCC2(C)C(=O)N(CCS(=O)(=O)N2CCOCC2)Cc2ccc(Cl)cc2)c1 (stereo not shown) [Compound 179, 1-[2-(3,5-Dimethyl-phenyl)-acetyl]-2-methyl-azetidine-2-carboxylic acid (4-chloro-benzyl)-[2-(morpholine-4-sulfonyl)-ethyl]-amide] | > 1000 nM
9 | Cc1cc(C)cc(CC(=O)N2CCC2(C)C(=O)N(CCCS(=O)(=O)N2CCN(C)CC2)Cc2ccc(Cl)cc2)c1 (stereo not shown) [Compound 180, 1-[2-(3,5-Dimethyl-phenyl)-acetyl]-2-methyl-azetidine-2-carboxylic acid (4-chloro-benzyl)-[3-(4-methyl-piperazine-1-sulfonyl)-propyl]-amide] | 501 to 1000 nM
10 | CC1(C(=O)N(CCCS(N)(=O)=O)Cc2ccc(Cl)cc2)CCN1C(=O)Cc1csc2ccccc12 (stereo not shown) [Compound 181, 1-(2-Benzo[b]thiophen-3-yl-acetyl)-2-methyl-azetidine-2-carboxylic acid (4-chloro-benzyl)-(3-sulfamoyl-propyl)-amide] | 0.01 to 100 nM
11 | CC1(C(=O)N(CCCC(=O)O)Cc2ccc3scnc3c2)CCN1C(=O)Cc1csc2ccccc12 (stereo not shown) [Compound 183, 4-{[1-(2-Benzo[b]thiophen-3-yl-acetyl)-2-methyl-azetidine-2-carbonyl]-benzothiazol-5-ylmethyl-amino}-butyric acid] | 0.01 to 100 nM
12 | CC1(C(=O)N(CCCC(=O)O)Cc2ccc3scnc3c2)CCN1C(=O)c1csc2ccccc12 (stereo not shown) [Compound 184, 4-{[1-(Benzo[b]thiophene-3-carbonyl)-2-methyl-azetidine-2-carbonyl]-benzothiazol-5-ylmethyl-amino}-butyric acid] | 101 to 500 nM
13 | Cc1cc(C)cc(CC(=O)N2CCC2(C)C(=O)N(CCCC(=O)O)Cc2ccc3scnc3c2)c1 (stereo not shown) [Compound 185, 4-(Benzothiazol-5-ylmethyl-{1-[2-(3,5-dimethyl-phenyl)-acetyl]-2-methyl-azetidine-2-carbonyl}-amino)-butyric acid] | 501 to 1000 nM
14 | CNS(=O)(=O)CCCN(Cc1ccc(Cl)cc1)C(=O)C1(C)CCN1C(=O)c1csc2ccccc12 (stereo not shown) [Compound 186, 1-(Benzo[b]thiophene-3-carbonyl)-2-methyl-azetidine-2-carboxlic acid (4-chloro-benzyl)-(3-methylsulfamoyl-propyl)-amide] | 101 to 500 nM
15 | CC1(C(=O)N(CCC(=O)O)Cc2ccc3cn[nH]c3c2)CCN1C(=O)c1csc2ccccc12 (stereo not shown) [Compound 188, 3-[[1-(Benzo[b]thiophene-3-carbonyl)-2-methyl-azetidine-2-carbonyl]-(1H-indazol-6-ylmethyl)-amino]-propionic acid] | 501 to 1000 nM
16 | CNS(=O)(=O)CCCN(Cc1ccc(Cl)cc1)C(=O)C1(C)CCN1C(=O)Cc1csc2ccccc12 (stereo not shown) [Compound 189, 1-(2-Benzo[b]thiophen-3-yl-acetyl)-2-methyl-azetidine-2-carboxylic acid (4-chloro-benzyl)-(3-methylsulfamoyl-propyl)-amide] | 0.01 to 100 nM
17 | CNS(=O)(=O)CCCN(Cc1cccc(Cl)c1)C(=O)C1(C)CCN1C(=O)c1csc2ccccc12 (stereo not shown) [Compound 190, 1-(Benzo[b]thiophene-3-carbonyl)-2-methyl-azetidine-2-carboxylic acid (3-chloro-benzyl)-(3-methylsulfamoyl-propyl)-amide] | 0.01 to 100 nM
18 | CC1(C(=O)N(CCS(N)(=O)=O)Cc2ccc(Cl)cc2)CCN1C(=O)c1csc2ccccc12 (stereo not shown) [Compound 192, 1-(Benzo[b]thiophene-3-carbonyl)-2-methyl-azetidine-2-carboxylic acid (4-chloro-benzyl)-(2-sulfamoyl-ethyl)-amide] | 0.01 to 100 nM
19 | CNS(=O)(=O)CCN(Cc1ccc(Cl)cc1)C(=O)C1(C)CCN1C(=O)c1csc2ccccc12 (stereo not shown) [Compound 193, 1-(Benzo[b]thiophene-3-carbonyl)-2-methyl-azetidine-2-carboxylic acid (4-chloro-benzyl)-(2-methylsulfamoyl-ethyl)-amide] | 101 to 500 nM
20 | Cc1cc(C)cc(OC(=O)N2CCC2(C)C(=O)N(CCCC(=O)O)Cc2ccc(Cl)cc2)c1 (stereo not shown) [Compound 196, 2-[(3-Carboxy-propyl)-(4-chloro-benzyl)-carbamoyl]-2-methyl-azetidine-1-carboxylic acid 3,5-dimethyl-phenyl ester] | 0.01 to 100 nM
21 | C[C@H](c1ccc(Cl)cc1)N(CCCC(=O)O)C(=O)[C@@]1(C)CCN1C(=O)c1csc2ccccc12 [Compound 197, 4-{[(R)-1-(Benzo[b]thiophene-3-carbonyl)-2-methyl-azetidine-2-carbonyl]-[(R)-1-(4-chloro-phenyl)-ethyl]-amino}-butyric acid] | 501 to 1000 nM
22 | O=C(O)CCCN(Cc1cccc(Cl)c1)C(=O)C1(Cc2ccccc2)CCN1C(=O)c1csc2ccccc12 (stereo not shown) [Compound 199, 4-[[1-(Benzo[b]thiophene-3-carbonyl)-2-benzyl-azetidine-2-carbonyl]-(3-chloro-benzyl)-amino]-butyric acid] | 101 to 500 nM

Reference: patent publication US8759334B2, “Compounds useful for the treatment of metabolic and inflammatory diseases” (Galapagos NV, priority 2011, dated 2014)
